# Test results from ChEMBL document CHEMBL2429768, “Eco-friendly synthesis and antimicrobial activities of substituted-5-(1H-indol-3-yl)methylene)-2,2-dimethyl-1,3-dioxane-4,6-dione derivatives” (2013).
# Legend:
# Format in all cases: functional
# Escherichia coli [1] = test: Antibacterial activity against Escherichia coli ATCC 8739 at 500 ug/ml after 24 hrs by agar well diffusion method; conditions: ATCC 8739, 24 h, read-out: DIZ
# Bacillus subtilis [2] = test: Antibacterial activity against Bacillus subtilis at 200 ug/ml after 24 hrs by agar well diffusion method; conditions: read-out: DIZ
# Rhizoctonia solani [3] = test: Antifungal activity against Rhizoctonia solani at 300 ug/ml after 72 hrs by agar well diffusion method; conditions: read-out: DIZ
# Klebsiella pneumoniae [4] = test: Antibacterial activity against Klebsiella pneumoniae at 300 ug/ml after 24 hrs by agar well diffusion method; conditions: read-out: DIZ
# Escherichia coli [5] = test: Antibacterial activity against Escherichia coli ATCC 8739 at 300 ug/ml after 24 hrs by agar well diffusion method; conditions: ATCC 8739, 24 h, read-out: DIZ
# Bacillus subtilis [6] = test: Antibacterial activity against Bacillus subtilis at 100 ug/ml after 24 hrs by agar well diffusion method; conditions: read-out: DIZ
# Klebsiella pneumoniae [7] = test: Antibacterial activity against Klebsiella pneumoniae after 24 hrs by agar well diffusion method
# Fusarium oxysporum [8] = test: Antifungal activity against Fusarium oxysporum after 72 hrs by agar well diffusion method
# Staphylococcus aureus [9] = test: Antibacterial activity against Staphylococcus aureus ATCC 6538 at 100 ug/ml after 24 hrs by agar well diffusion method; conditions: ATCC 6538, 24 h, read-out: DIZ
# Bacillus subtilis [10] = test: Antibacterial activity against Bacillus subtilis after 24 hrs by agar well diffusion method
# Staphylococcus aureus [11] = test: Antibacterial activity against Staphylococcus aureus ATCC 6538 at 300 ug/ml after 24 hrs by agar well diffusion method; conditions: ATCC 6538, 24 h, read-out: DIZ
# Aspergillus flavus [12] = test: Antifungal activity against Aspergillus flavus at 200 ug/ml after 72 hrs by agar well diffusion method; conditions: read-out: DIZ
# Fusarium oxysporum [13] = test: Antifungal activity against Fusarium oxysporum at 500 ug/ml after 72 hrs by agar well diffusion method; conditions: read-out: DIZ
# Staphylococcus aureus [14] = test: Antibacterial activity against Staphylococcus aureus ATCC 6538 at 50 ug/ml after 24 hrs by agar well diffusion method; conditions: ATCC 6538, 24 h, read-out: DIZ
# Aspergillus flavus [15] = test: Antifungal activity against Aspergillus flavus after 72 hrs by agar well diffusion method
# Rhizoctonia solani [16] = test: Antifungal activity against Rhizoctonia solani at 500 ug/ml after 72 hrs by agar well diffusion method; conditions: read-out: DIZ
# Escherichia coli [17] = test: Antibacterial activity against Escherichia coli ATCC 8739 at 200 ug/ml after 24 hrs by agar well diffusion method; conditions: ATCC 8739, 24 h, read-out: DIZ
# Staphylococcus aureus [18] = test: Antibacterial activity against Staphylococcus aureus ATCC 6538 after 24 hrs by agar well diffusion method; conditions: ATCC 6538, 24 h
# Escherichia coli [19] = test: Antibacterial activity against Escherichia coli ATCC 8739 after 24 hrs by agar well diffusion method; conditions: ATCC 8739, 24 h
# Fusarium oxysporum [20] = test: Antifungal activity against Fusarium oxysporum at 50 ug/ml after 72 hrs by agar well diffusion method; conditions: read-out: DIZ
# Aspergillus flavus [21] = test: Antifungal activity against Aspergillus flavus at 50 ug/ml after 72 hrs by agar well diffusion method; conditions: read-out: DIZ
# Aspergillus niger [22] = test: Antifungal activity against Aspergillus niger at 50 ug/ml after 72 hrs by agar well diffusion method; conditions: read-out: DIZ
# Aspergillus flavus [23] = test: Antifungal activity against Aspergillus flavus at 500 ug/ml after 72 hrs by agar well diffusion method; conditions: read-out: DIZ
# Aspergillus niger [24] = test: Antifungal activity against Aspergillus niger at 500 ug/ml after 72 hrs by agar well diffusion method; conditions: read-out: DIZ
# Escherichia coli [25] = test: Antibacterial activity against Escherichia coli ATCC 8739 at 50 ug/ml after 24 hrs by agar well diffusion method; conditions: ATCC 8739, 24 h, read-out: DIZ
# Bacillus subtilis [26] = test: Antibacterial activity against Bacillus subtilis at 50 ug/ml after 24 hrs by agar well diffusion method; conditions: read-out: DIZ
# Fusarium oxysporum [27] = test: Antifungal activity against Fusarium oxysporum at 300 ug/ml after 72 hrs by agar well diffusion method; conditions: read-out: DIZ
# Fusarium oxysporum [28] = test: Antifungal activity against Fusarium oxysporum at 100 ug/ml after 72 hrs by agar well diffusion method; conditions: read-out: DIZ
# Klebsiella pneumoniae [29] = test: Antibacterial activity against Klebsiella pneumoniae at 50 ug/ml after 24 hrs by agar well diffusion method; conditions: read-out: DIZ
# Aspergillus flavus [30] = test: Antifungal activity against Aspergillus flavus at 100 ug/ml after 72 hrs by agar well diffusion method; conditions: read-out: DIZ
# Rhizoctonia solani [31] = test: Antifungal activity against Rhizoctonia solani at 100 ug/ml after 72 hrs by agar well diffusion method; conditions: read-out: DIZ
# Rhizoctonia solani [32] = test: Antifungal activity against Rhizoctonia solani at 50 ug/ml after 72 hrs by agar well diffusion method; conditions: read-out: DIZ
# Staphylococcus aureus [33] = test: Antibacterial activity against Staphylococcus aureus ATCC 6538 at 500 ug/ml after 24 hrs by agar well diffusion method; conditions: ATCC 6538, 24 h, read-out: DIZ
# Aspergillus niger [34] = test: Antifungal activity against Aspergillus niger at 300 ug/ml after 72 hrs by agar well diffusion method; conditions: read-out: DIZ
# Rhizoctonia solani [35] = test: Antifungal activity against Rhizoctonia solani at 200 ug/ml after 72 hrs by agar well diffusion method; conditions: read-out: DIZ
# Escherichia coli [36] = test: Antibacterial activity against Escherichia coli ATCC 8739 at 100 ug/ml after 24 hrs by agar well diffusion method; conditions: ATCC 8739, 24 h, read-out: DIZ
# Aspergillus flavus [37] = test: Antifungal activity against Aspergillus flavus at 300 ug/ml after 72 hrs by agar well diffusion method; conditions: read-out: DIZ
# Klebsiella pneumoniae [38] = test: Antibacterial activity against Klebsiella pneumoniae at 500 ug/ml after 24 hrs by agar well diffusion method; conditions: read-out: DIZ
# Klebsiella pneumoniae [39] = test: Antibacterial activity against Klebsiella pneumoniae at 100 ug/ml after 24 hrs by agar well diffusion method; conditions: read-out: DIZ
# Klebsiella pneumoniae [40] = test: Antibacterial activity against Klebsiella pneumoniae at 200 ug/ml after 24 hrs by agar well diffusion method; conditions: read-out: DIZ
# Aspergillus niger [41] = test: Antifungal activity against Aspergillus niger at 100 ug/ml after 72 hrs by agar well diffusion method; conditions: read-out: DIZ
# Rhizoctonia solani [42] = test: Antifungal activity against Rhizoctonia solani after 72 hrs by agar well diffusion method
# Fusarium oxysporum [43] = test: Antifungal activity against Fusarium oxysporum at 200 ug/ml after 72 hrs by agar well diffusion method; conditions: read-out: DIZ
# Bacillus subtilis [44] = test: Antibacterial activity against Bacillus subtilis at 500 ug/ml after 24 hrs by agar well diffusion method; conditions: read-out: DIZ
# Staphylococcus aureus [45] = test: Antibacterial activity against Staphylococcus aureus ATCC 6538 at 200 ug/ml after 24 hrs by agar well diffusion method; conditions: ATCC 6538, 24 h, read-out: DIZ
# Aspergillus niger [46] = test: Antifungal activity against Aspergillus niger at 200 ug/ml after 72 hrs by agar well diffusion method; conditions: read-out: DIZ
# Bacillus subtilis [47] = test: Antibacterial activity against Bacillus subtilis at 300 ug/ml after 24 hrs by agar well diffusion method; conditions: read-out: DIZ
# Aspergillus niger [48] = test: Antifungal activity against Aspergillus niger after 72 hrs by agar well diffusion method
compound,measurement,setting,value
CCn1cc(C=C2C(=O)OC(C)(C)OC2=O)c2cc(Br)ccc21,zone of inhibition at 500 µg/mL,Escherichia coli [1],25 mm
same,zone of inhibition at 200 µg/mL,Bacillus subtilis [2],11 mm
same,zone of inhibition at 300 µg/mL,Rhizoctonia solani [3],21 mm
same,zone of inhibition at 300 µg/mL,Klebsiella pneumoniae [4],21 mm
same,zone of inhibition at 300 µg/mL,Escherichia coli [5],17 mm
same,zone of inhibition at 100 µg/mL,Bacillus subtilis [6],9.5 mm
same,MIC,Klebsiella pneumoniae [7],15 µg/mL
same,MIC,Fusarium oxysporum [8],35 µg/mL
same,zone of inhibition at 100 µg/mL,Staphylococcus aureus [9],9.5 mm
same,MIC,Bacillus subtilis [10],30 µg/mL
same,zone of inhibition at 300 µg/mL,Staphylococcus aureus [11],15 mm
same,zone of inhibition at 200 µg/mL,Aspergillus flavus [12],12 mm
same,zone of inhibition at 500 µg/mL,Fusarium oxysporum [13],29 mm
same,zone of inhibition at 50 µg/mL,Staphylococcus aureus [14],5 mm
same,MIC,Aspergillus flavus [15],40 µg/mL
same,zone of inhibition at 500 µg/mL,Rhizoctonia solani [16],29 mm
same,zone of inhibition at 200 µg/mL,Escherichia coli [17],13 mm
same,MIC,Staphylococcus aureus [18],25 µg/mL
same,MIC,Escherichia coli [19],15 µg/mL
same,zone of inhibition at 50 µg/mL,Fusarium oxysporum [20],7 mm
same,zone of inhibition at 50 µg/mL,Aspergillus flavus [21],4 mm
same,zone of inhibition at 50 µg/mL,Aspergillus niger [22],6 mm
same,zone of inhibition at 500 µg/mL,Aspergillus flavus [23],23 mm
same,zone of inhibition at 500 µg/mL,Aspergillus niger [24],25 mm
same,zone of inhibition at 50 µg/mL,Escherichia coli [25],6 mm
same,zone of inhibition at 50 µg/mL,Bacillus subtilis [26],5 mm
same,zone of inhibition at 300 µg/mL,Fusarium oxysporum [27],21 mm
same,zone of inhibition at 100 µg/mL,Fusarium oxysporum [28],12 mm
same,zone of inhibition at 50 µg/mL,Klebsiella pneumoniae [29],8.4 mm
same,zone of inhibition at 100 µg/mL,Aspergillus flavus [30],9 mm
same,zone of inhibition at 100 µg/mL,Rhizoctonia solani [31],12 mm
same,zone of inhibition at 50 µg/mL,Rhizoctonia solani [32],7 mm
same,zone of inhibition at 500 µg/mL,Staphylococcus aureus [33],23 mm
same,zone of inhibition at 300 µg/mL,Aspergillus niger [34],18 mm
same,zone of inhibition at 200 µg/mL,Rhizoctonia solani [35],16 mm
same,zone of inhibition at 100 µg/mL,Escherichia coli [36],10 mm
same,zone of inhibition at 300 µg/mL,Aspergillus flavus [37],15 mm
same,zone of inhibition at 500 µg/mL,Klebsiella pneumoniae [38],30 mm
same,zone of inhibition at 100 µg/mL,Klebsiella pneumoniae [39],13.4 mm
same,zone of inhibition at 200 µg/mL,Klebsiella pneumoniae [40],14 mm
same,zone of inhibition at 100 µg/mL,Aspergillus niger [41],10 mm
same,MIC,Rhizoctonia solani [42],35 µg/mL
same,zone of inhibition at 200 µg/mL,Fusarium oxysporum [43],16 mm
same,zone of inhibition at 500 µg/mL,Bacillus subtilis [44],23 mm
same,zone of inhibition at 200 µg/mL,Staphylococcus aureus [45],11 mm
same,zone of inhibition at 200 µg/mL,Aspergillus niger [46],14 mm
same,zone of inhibition at 300 µg/mL,Bacillus subtilis [47],15 mm
same,MIC,Aspergillus niger [48],40 µg/mL
Cn1cc(C=C2C(=O)OC(C)(C)OC2=O)c2cc(Br)ccc21,zone of inhibition at 500 µg/mL,Escherichia coli [1],30 mm
same,zone of inhibition at 200 µg/mL,Bacillus subtilis [2],11 mm
same,zone of inhibition at 300 µg/mL,Rhizoctonia solani [3],21 mm
same,zone of inhibition at 300 µg/mL,Klebsiella pneumoniae [4],23 mm
same,zone of inhibition at 300 µg/mL,Escherichia coli [5],21 mm
same,zone of inhibition at 100 µg/mL,Bacillus subtilis [6],9.5 mm
same,MIC,Klebsiella pneumoniae [7],15 µg/mL
same,MIC,Fusarium oxysporum [8],35 µg/mL
same,zone of inhibition at 100 µg/mL,Staphylococcus aureus [9],10 mm
same,MIC,Bacillus subtilis [10],30 µg/mL
same,zone of inhibition at 300 µg/mL,Staphylococcus aureus [11],17 mm
same,zone of inhibition at 200 µg/mL,Aspergillus flavus [12],12 mm
same,zone of inhibition at 500 µg/mL,Fusarium oxysporum [13],29 mm
same,zone of inhibition at 50 µg/mL,Staphylococcus aureus [14],6 mm
same,MIC,Aspergillus flavus [15],40 µg/mL
same,zone of inhibition at 500 µg/mL,Rhizoctonia solani [16],29 mm
same,zone of inhibition at 200 µg/mL,Escherichia coli [17],14 mm
same,MIC,Staphylococcus aureus [18],25 µg/mL
same,MIC,Escherichia coli [19],15 µg/mL
same,zone of inhibition at 50 µg/mL,Fusarium oxysporum [20],7 mm
same,zone of inhibition at 50 µg/mL,Aspergillus flavus [21],4 mm
same,zone of inhibition at 50 µg/mL,Aspergillus niger [22],6 mm
same,zone of inhibition at 500 µg/mL,Aspergillus flavus [23],23 mm
same,zone of inhibition at 500 µg/mL,Aspergillus niger [24],25 mm
same,zone of inhibition at 50 µg/mL,Escherichia coli [25],8.4 mm
same,zone of inhibition at 50 µg/mL,Bacillus subtilis [26],5 mm
same,zone of inhibition at 300 µg/mL,Fusarium oxysporum [27],21 mm
same,zone of inhibition at 100 µg/mL,Fusarium oxysporum [28],12 mm
same,zone of inhibition at 50 µg/mL,Klebsiella pneumoniae [29],9 mm
same,zone of inhibition at 100 µg/mL,Aspergillus flavus [30],9 mm
same,zone of inhibition at 100 µg/mL,Rhizoctonia solani [31],12 mm
same,zone of inhibition at 50 µg/mL,Rhizoctonia solani [32],7 mm
same,zone of inhibition at 500 µg/mL,Staphylococcus aureus [33],25 mm
same,zone of inhibition at 300 µg/mL,Aspergillus niger [34],18 mm
same,zone of inhibition at 200 µg/mL,Rhizoctonia solani [35],16 mm
same,zone of inhibition at 100 µg/mL,Escherichia coli [36],13.5 mm
same,zone of inhibition at 300 µg/mL,Aspergillus flavus [37],15 mm
same,zone of inhibition at 500 µg/mL,Klebsiella pneumoniae [38],32 mm
same,zone of inhibition at 100 µg/mL,Klebsiella pneumoniae [39],14 mm
same,zone of inhibition at 200 µg/mL,Klebsiella pneumoniae [40],18 mm
same,zone of inhibition at 100 µg/mL,Aspergillus niger [41],10 mm
same,MIC,Rhizoctonia solani [42],35 µg/mL
same,zone of inhibition at 200 µg/mL,Fusarium oxysporum [43],16 mm
same,zone of inhibition at 500 µg/mL,Bacillus subtilis [44],23 mm
same,zone of inhibition at 200 µg/mL,Staphylococcus aureus [45],13 mm
same,zone of inhibition at 200 µg/mL,Aspergillus niger [46],14 mm
same,zone of inhibition at 300 µg/mL,Bacillus subtilis [47],15 mm
same,MIC,Aspergillus niger [48],40 µg/mL
